Source: the kinase profiling compilation of Christmann-Franck et al. (2016)

Key:
Experiment in all cases: KINOMEscan competition binding
Conditions in all cases: compound 10.0 µM; call rule not given here
[1] = biological target: AAK1 (human) (UniProt Q2M2I8)
[2] = biological target: ABL2 (human) (UniProt P42684)
[3] = biological target: AKT3 (human) (UniProt Q9Y243)
[4] = biological target: BRAF (human) (UniProt P15056)
[5] = biological target: BRSK2 (human) (UniProt Q8IWQ3)
[6] = biological target: CAMK1D (human) (UniProt Q8IU85)
CAMK1D (human), sequence (Q8IU85 whole entry, looked up): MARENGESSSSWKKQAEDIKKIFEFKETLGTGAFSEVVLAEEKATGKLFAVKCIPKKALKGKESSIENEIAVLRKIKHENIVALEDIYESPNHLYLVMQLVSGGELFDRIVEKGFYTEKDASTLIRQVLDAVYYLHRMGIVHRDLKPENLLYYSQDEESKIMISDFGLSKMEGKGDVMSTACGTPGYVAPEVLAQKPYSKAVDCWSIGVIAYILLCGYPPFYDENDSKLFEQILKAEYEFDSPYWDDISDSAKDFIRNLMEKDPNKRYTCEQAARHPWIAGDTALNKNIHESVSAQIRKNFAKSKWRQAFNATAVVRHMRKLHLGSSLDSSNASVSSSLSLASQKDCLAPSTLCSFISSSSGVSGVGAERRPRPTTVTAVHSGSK

[7] = biological target: CAMK2G (human) (UniProt Q13555)
CAMK2G (human), sequence (Q13555 whole entry, looked up): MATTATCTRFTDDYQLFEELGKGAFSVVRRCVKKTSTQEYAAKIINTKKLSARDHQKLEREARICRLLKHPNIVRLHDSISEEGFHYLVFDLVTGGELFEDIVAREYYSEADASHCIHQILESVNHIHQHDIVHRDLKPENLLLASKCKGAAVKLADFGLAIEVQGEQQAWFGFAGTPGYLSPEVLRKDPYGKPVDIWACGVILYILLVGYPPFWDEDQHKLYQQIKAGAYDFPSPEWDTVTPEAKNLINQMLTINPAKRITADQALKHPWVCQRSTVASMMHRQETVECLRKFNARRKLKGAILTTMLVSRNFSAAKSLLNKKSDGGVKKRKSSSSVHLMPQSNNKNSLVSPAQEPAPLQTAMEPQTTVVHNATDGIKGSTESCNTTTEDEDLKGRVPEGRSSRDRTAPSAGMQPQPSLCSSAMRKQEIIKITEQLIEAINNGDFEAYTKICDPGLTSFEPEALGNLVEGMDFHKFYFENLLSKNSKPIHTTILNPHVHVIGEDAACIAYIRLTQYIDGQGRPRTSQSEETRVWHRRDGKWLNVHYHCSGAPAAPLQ

[8] = biological target: CAMKK1 (human) (UniProt Q8N5S9)
[9] = biological target: CDK16 (human) (UniProt Q00536)
[10] = biological target: CDK2 (human) (UniProt P24941)
[11] = biological target: CLK1 (human) (UniProt P49759)
[12] = biological target: CSNK1E (human) (UniProt P49674)
[13] = biological target: EPHA5 (human) (UniProt P54756)
[14] = biological target: EPHA6 (human) (UniProt Q9UF33)
[15] = biological target: JAK1 JH2 pseudokinase (human) (UniProt P23458)
JAK1 JH2 pseudokinase (human), sequence (P23458 whole entry, looked up): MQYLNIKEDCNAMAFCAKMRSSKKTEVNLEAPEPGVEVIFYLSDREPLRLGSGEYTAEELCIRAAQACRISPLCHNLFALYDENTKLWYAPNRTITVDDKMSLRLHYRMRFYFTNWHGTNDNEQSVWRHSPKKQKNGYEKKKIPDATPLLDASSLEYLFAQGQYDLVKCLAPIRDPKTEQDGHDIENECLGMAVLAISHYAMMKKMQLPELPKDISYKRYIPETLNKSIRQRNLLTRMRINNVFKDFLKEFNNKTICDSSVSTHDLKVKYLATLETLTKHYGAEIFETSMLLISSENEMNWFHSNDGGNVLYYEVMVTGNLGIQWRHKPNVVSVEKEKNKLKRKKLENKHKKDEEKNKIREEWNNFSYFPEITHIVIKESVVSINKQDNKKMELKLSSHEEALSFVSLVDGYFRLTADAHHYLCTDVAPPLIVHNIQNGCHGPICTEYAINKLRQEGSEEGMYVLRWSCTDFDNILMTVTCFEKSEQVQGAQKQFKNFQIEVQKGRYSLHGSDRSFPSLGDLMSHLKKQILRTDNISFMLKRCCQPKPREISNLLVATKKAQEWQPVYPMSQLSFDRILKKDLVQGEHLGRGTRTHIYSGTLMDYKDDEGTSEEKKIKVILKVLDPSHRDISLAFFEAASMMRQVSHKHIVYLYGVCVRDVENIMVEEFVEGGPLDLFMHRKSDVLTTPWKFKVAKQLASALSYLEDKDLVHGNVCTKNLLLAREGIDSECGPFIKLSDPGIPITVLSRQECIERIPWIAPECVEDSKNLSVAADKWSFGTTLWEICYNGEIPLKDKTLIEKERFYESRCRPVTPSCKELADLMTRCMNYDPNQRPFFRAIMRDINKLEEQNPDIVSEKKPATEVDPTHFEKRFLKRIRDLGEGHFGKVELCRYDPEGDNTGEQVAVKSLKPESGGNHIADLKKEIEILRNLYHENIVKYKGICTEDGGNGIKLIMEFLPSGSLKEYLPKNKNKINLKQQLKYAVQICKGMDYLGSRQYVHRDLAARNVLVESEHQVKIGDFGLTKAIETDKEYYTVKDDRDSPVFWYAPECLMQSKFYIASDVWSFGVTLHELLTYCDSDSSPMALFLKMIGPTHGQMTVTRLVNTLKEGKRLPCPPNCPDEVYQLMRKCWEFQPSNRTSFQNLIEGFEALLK

[16] = biological target: NEK6 (human) (UniProt Q9HC98)
NEK6 (human), sequence (Q9HC98 whole entry, looked up): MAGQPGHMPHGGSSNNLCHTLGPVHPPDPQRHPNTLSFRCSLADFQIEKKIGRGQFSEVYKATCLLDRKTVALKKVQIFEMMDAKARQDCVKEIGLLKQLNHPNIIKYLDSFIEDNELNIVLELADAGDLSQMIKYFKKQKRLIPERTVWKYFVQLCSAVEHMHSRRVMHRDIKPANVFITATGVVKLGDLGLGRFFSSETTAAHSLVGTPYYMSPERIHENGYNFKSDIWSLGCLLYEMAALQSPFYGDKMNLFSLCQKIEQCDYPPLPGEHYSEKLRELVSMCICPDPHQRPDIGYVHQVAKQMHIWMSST

[17] = biological target: NEK9 (human) (UniProt Q8TD19)
NEK9 (human), sequence (Q8TD19 whole entry, looked up): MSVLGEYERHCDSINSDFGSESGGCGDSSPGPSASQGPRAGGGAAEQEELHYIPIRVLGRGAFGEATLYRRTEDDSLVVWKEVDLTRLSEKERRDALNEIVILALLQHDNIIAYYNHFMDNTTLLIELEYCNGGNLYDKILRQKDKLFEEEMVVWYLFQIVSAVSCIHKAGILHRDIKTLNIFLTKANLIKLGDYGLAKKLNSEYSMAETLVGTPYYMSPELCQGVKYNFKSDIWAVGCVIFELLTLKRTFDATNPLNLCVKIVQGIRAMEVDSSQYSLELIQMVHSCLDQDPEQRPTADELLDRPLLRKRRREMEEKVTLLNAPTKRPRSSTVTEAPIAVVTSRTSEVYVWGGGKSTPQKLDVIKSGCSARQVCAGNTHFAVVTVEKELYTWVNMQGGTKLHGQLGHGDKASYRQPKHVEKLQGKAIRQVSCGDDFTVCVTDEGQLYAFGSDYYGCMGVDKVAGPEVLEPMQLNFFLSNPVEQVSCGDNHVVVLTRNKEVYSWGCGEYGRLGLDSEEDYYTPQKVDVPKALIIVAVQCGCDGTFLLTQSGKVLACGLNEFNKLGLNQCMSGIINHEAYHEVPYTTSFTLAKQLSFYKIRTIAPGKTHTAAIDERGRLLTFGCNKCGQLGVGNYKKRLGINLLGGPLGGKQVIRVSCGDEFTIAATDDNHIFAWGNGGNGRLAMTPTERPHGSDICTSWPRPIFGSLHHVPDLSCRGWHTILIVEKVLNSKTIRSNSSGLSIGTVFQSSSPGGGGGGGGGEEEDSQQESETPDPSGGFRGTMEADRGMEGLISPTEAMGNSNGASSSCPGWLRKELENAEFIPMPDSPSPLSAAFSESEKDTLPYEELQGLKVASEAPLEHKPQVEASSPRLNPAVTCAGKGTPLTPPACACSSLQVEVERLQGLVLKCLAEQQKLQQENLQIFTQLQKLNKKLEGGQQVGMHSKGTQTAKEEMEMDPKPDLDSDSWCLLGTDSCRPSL

[18] = biological target: PDPK1 (human) (UniProt O15530)
PDPK1 (human), sequence (O15530 whole entry, looked up): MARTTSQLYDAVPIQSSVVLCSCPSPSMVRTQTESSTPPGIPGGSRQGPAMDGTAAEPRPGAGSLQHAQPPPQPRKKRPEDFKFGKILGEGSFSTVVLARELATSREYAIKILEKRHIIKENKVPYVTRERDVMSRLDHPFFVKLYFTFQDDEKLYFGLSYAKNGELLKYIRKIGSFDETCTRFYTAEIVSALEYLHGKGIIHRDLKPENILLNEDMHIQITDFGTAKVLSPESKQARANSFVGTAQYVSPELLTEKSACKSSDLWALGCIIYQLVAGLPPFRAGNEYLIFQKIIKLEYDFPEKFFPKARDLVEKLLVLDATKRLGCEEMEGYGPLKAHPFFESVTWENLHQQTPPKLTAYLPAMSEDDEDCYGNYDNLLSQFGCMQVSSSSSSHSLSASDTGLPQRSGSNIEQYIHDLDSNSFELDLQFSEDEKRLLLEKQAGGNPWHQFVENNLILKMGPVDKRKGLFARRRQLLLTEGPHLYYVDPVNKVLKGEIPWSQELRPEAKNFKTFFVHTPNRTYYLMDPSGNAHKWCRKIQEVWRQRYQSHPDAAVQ

[19] = biological target: PTK6 (human) (UniProt Q13882)
PTK6 (human), sequence (Q13882 whole entry, looked up): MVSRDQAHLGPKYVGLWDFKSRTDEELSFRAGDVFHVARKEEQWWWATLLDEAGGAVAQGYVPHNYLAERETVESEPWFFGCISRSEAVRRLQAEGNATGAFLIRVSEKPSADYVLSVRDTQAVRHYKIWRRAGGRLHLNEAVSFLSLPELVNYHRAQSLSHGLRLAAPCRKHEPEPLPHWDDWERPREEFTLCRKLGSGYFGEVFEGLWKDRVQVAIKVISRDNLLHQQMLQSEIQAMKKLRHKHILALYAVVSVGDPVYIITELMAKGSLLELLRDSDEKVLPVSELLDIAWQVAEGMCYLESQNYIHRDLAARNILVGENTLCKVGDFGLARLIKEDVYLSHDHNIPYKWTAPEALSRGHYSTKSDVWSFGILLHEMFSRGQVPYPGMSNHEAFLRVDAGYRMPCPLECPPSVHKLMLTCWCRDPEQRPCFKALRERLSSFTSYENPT

[20] = biological target: ROS1 (human) (UniProt P08922)
[21] = biological target: STK17B (human) (UniProt O94768)
[22] = biological target: STK38L (human) (UniProt Q9Y2H1)
STK38L (human), sequence (Q9Y2H1 whole entry, looked up): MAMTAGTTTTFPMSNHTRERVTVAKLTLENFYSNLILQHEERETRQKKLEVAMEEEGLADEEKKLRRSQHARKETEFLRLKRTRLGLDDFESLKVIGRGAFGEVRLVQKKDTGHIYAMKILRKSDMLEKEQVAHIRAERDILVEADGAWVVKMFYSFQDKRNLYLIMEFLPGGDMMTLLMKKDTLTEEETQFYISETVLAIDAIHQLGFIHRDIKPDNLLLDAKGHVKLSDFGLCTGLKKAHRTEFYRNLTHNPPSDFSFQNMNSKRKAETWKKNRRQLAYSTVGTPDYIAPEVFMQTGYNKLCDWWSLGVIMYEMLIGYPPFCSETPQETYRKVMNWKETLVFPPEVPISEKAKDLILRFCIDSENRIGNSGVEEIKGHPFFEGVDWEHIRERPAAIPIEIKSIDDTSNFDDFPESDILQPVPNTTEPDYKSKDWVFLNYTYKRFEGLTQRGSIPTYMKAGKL

[23] = biological target: AURKB (human) (UniProt Q96GD4)
[24] = biological target: BMPR1A (human) (UniProt P36894)
[25] = biological target: CSNK1G1 (human) (UniProt Q9HCP0)
[26] = biological target: CSNK1G2 (human) (UniProt P78368)
[27] = biological target: EPHA7 (human) (UniProt Q15375)
[28] = biological target: FER (human) (UniProt P16591)
[29] = biological target: FLT1 (human) (UniProt P17948)
[30] = biological target: MAP4K5 (human) (UniProt Q9Y4K4)
[31] = biological target: MKNK2 (human) (UniProt Q9HBH9)
[32] = biological target: PAK7 (human) (UniProt Q9P286)
[33] = biological target: STK33 (human) (UniProt Q9BYT3)
[34] = biological target: TNNI3K (human) (UniProt Q59H18)

kinase still bound, per cent of control [3]	kinase still bound, per cent of control [6]	kinase still bound, per cent of control [7]	kinase still bound, per cent of control [9]	kinase still bound, per cent of control [11]	kinase still bound, per cent of control [14]	kinase still bound, per cent of control [15]	kinase still bound, per cent of control [16]	kinase still bound, per cent of control [18]	kinase still bound, per cent of control [19]	kinase still bound, per cent of control [20]	kinase still bound, per cent of control [22]	Structure (SMILES)	kinase still bound, per cent of control [17]	also measured
no effect (inactive)	no effect (inactive)	no effect (inactive)	no effect (inactive)	no effect (inactive)	0%	no effect (inactive)	no effect (inactive)	no effect (inactive)	0%	no effect (inactive)	no effect (inactive)	Cc1ccc(O)cc1Nc1ccnc(Nc2cccc(C(N)=O)c2)n1	no effect (inactive)	kinase still bound, per cent of control [1]: no effect (inactive); kinase still bound, per cent of control [2]: 0%; kinase still bound, per cent of control [4]: no effect (inactive); kinase still bound, per cent of control [5]: no effect (inactive); kinase still bound, per cent of control [8]: no effect (inactive); kinase still bound, per cent of control [10]: no effect (inactive); kinase still bound, per cent of control [12]: 0%; kinase still bound, per cent of control [13]: 0%; kinase still bound, per cent of control [21]: no effect (inactive)
no effect (inactive)	no effect (inactive)	no effect (inactive)	0%	no effect (inactive)	no effect (inactive)	no effect (inactive)	no effect (inactive)	no effect (inactive)	no effect (inactive)	no effect (inactive)	no effect (inactive)	O=C(Nc1n[nH]c2nc(-c3cccc(O)c3)ccc12)C1CC1	no effect (inactive)	kinase still bound, per cent of control [23]: no effect (inactive); kinase still bound, per cent of control [24]: no effect (inactive); kinase still bound, per cent of control [25]: no effect (inactive); kinase still bound, per cent of control [26]: no effect (inactive); kinase still bound, per cent of control [27]: no effect (inactive); kinase still bound, per cent of control [28]: no effect (inactive); kinase still bound, per cent of control [29]: no effect (inactive); kinase still bound, per cent of control [30]: no effect (inactive); kinase still bound, per cent of control [31]: no effect (inactive); kinase still bound, per cent of control [32]: no effect (inactive); kinase still bound, per cent of control [33]: no effect (inactive); kinase still bound, per cent of control [34]: no effect (inactive)
